Tests used:
HepG2 cells [1] = experiment: Morphological observation using AO/EB double staining; type: cell-based, human; conditions: HepG2, 2, 4, 8 μM for 72 h
Experimental: To further characterize 4a-induced HepG2 cell apoptosis, the changes in cell morphology of the treated cells were determined using AO/EB double staining. AO is a vital dye that stains both live and dead cells as it can penetrate normal cell membrane. EB stains only cells that have lost their membrane integrity. Cells that stained green indicate viable cells, yellow indicate early apoptosis and orange/red indicate late apoptosis.
Apoptotic study was performed using AO/EB double staining. HepG2 cells were seeded in six well plates at a density of 1 × 10^4 cells/well and allowed to grow for 24 h. Then the cells were incubated in the presence of 4a at various concentrations (2, 4, 8 μΜ) at 37 °C and 5% CO2 for 72 h. After the treatment period, cells were collected and centrifuged; then the cells were suspended in phosphate-buffer saline (PBS) and centrifuged again. The liquid was removed; the cells were suspended in PBS. Then AO/EB (AO/EB, Sigma, USA) solution (1:1 v/v) was added to the cell suspension in a final concentration of 100 μg/mL. Cell morphologies were assessed under a fluorescent microscope.

[2] = test system: Bel-7402 (human hepatocellular carcinoma); experiment: MTT cytotoxicity assay, Bel-7402; type: cell-based; conditions: maximal tested concentration 20.0 μM
Experimental: The cytotoxicity of ligustrazine-triterpenes derivatives was evaluated on five tumor cell lines (Bel-7402, HepG2, HT-29, Hela, and MCF-7) using the standard MTT assay. In the study, the antineoplastic drug cisplatin (DDP) was selected as the positive control. The MDCK cell line was used to test the toxicity of the ligustrazine-triterpenes derivatives and DDP.
The cell lines Bel-7402 (human hepatocellular carcinoma), HepG2 (human hepatocellular carcinoma), HT-29 (human colon carcinoma), Hela (human cervical cancer), MCF-7 (human breast cancer) were included in this study. All these cell lines were provided by the Chinese Academy of Medical Sciences & Peking Union Medical College. Cultures were maintained as monolayers in RPMI 1640 supplemented with 10% (v/v) heat inactivated fetal bovine serum and 1% (v/v) enicillin/streptomycin (Thermo Technologies, New York, NY, USA) at 37 °C in a humidified atmosphere with 5% CO2. The ligustrazine derivatives under study were dissolved in DMSO (Sigma, St. Louis, MO, USA) and added at required concentrations to the cell culture. Cells incubated without the preparations served as the control.
The cytotoxicity of the compounds was evaluated on five cancer cell lines (Bel-7402, HepG2, HT-29, Hela, MCF-7) by the standard MTT assay. In short, exponentially growing cells were seeded into 96-well plates at a density 10^4 cells/mL. The plates were incubated at 37 °C in a humidified 5% CO2 atmosphere. Cells were allowed to adhere to the surface for 24 h and then treated with serial dilutions of the compounds for 72 h. Later, aliquots of [3-(4,5-dimethylthiazol-2-yl)-2,5-diphenyltetrazolium bromide] (MTT) solution (20 μL, 5 mg/mL) were added to each well and the incubation was continued for an additional 4 h. Then the supernatant medium was thrown away. The dark blue formazan crystals formed within the healthy cells were solubilized with DMSO (150 μL) and the absorbance was measured in a plate reader (BIORAD 550 spectrophotometer, Bio-rad Life Science Development Ltd., Beijing, China) at 490 nm. Wells containing no drugs were used as control group. The IC50 values were defined as the concentration of compounds that produced a 50% reduction of surviving cells and calculated using Logit-method. Tumor cell growth inhibitory rate was calculated in the following Equation (1): % inhibition = (1 − Sample group OD/Control group OD) × 100% (1)

HepG2 cells [3] = experiment: Morphological observation using DAPI staining; type: cell-based, human; conditions: HepG2, 2, 4, 8 μM for 72 h
Experimental: DAPI staining was used to evaluate apoptosis associated morphological changes in this assay. HepG2 cells were seeded in the six well plates at a density of 4 × 10^3 cells/well and incubated overnight. Then the cells were incubated in the presence of 4a at various concentrations (2, 4, 8 μΜ) at 37 °C and 5% CO2 for 72 h. Cells were then washed with PBS, fixed with 4% paraformaldehyde followed by 70% ethanol. Finally, fixed cells were stained with DAPI (DAPI, Molecular Probes/Invitrogen Life Technologies, Carlsbad, CA, USA) at the concentration of 1 mg/mL and incubated for 1 min in dark. The cell morphological changes were observed by fluorescent microscopy and images were captured by digital camera.

HepG2 cells [4] = experiment: Morphological observation using Giemsa staining; type: cell-based, human; conditions: HepG2, 2, 4, 8 μM for 72 h
Experimental: The morphological changes in HepG2 cells were examined by Giemsa staining. HepG2 cells were seeded in 6-well plates. The cell density was adjusted to 4 × 10^3/well and incubated overnight. After 72 h reaction with certain concentrations of 4a (2, 4, 8 μM), cells were washed with PBS and fixed with cold methanol for 10 min. Methanol was discarded and cells were air-dried. Then fixed cells were stained with 6% Giemsa (Giemsa, Molecular Probes/Invitrogen Life Technologies, Carlsbad, CA, USA) solution for 5 min, washed with water and dried. The cell morphological changes were observed and photographed under a light microscope.

HepG2 cells [5] = experiment: Apoptosis analysis by flow cytometry using Annexin V-FITC/PI staining; type: cell-based, human; conditions: 72 h, control 6%
Experimental: To substantiate the ability of 4a to induce apoptosis, further analysis was carried out using Annexin V-FITC/PI double staining technique in HepG2 cells. Cells stained with Annexin V-FITC and PI were classified as necrotic (Q1; Annexin^−/PI^+), late apoptotic (Q2; Annexin^+/PI^+), intact (Q3; Annexin^−/PI^−), or early apoptotic (Q4; Annexin^+/PI^−) cells. […] Even at the minimum concentration of 5 μM, 4a induced cell apoptosis at a ratio of 75.7% after 72 h of treatment.
The Annexin V-FITC/PI flow cytometric assay was performed to determine the early and late apoptosis in this assay according to the instruction of the manufacturer (Annexin V-FITC/PI, Beijing BioDee Biotech. Co., Ltd., Beijing, China). Briefly, HepG2 cells were treated with various concentrations of compound 4a (5, 6, 7 μM) for 72 h at 37 °C, then the treated cells were washed twice with cold PBS and centrifuged at 1000 rpm for 5 min. The harvested cells were resuspended in 200 μL binding buffer, containing 10 μL Annexin V-FITC. After 15 min, the cells were washed twice and resuspended in 300 μL binding buffer. At the same time, 10 μL PI was added. Then the cells were immediately analyzed with a flow cytometry.

## C=C(C)[C@@H]1CC[C@]2(C(=O)OCc3nc(C)c(C)nc3C)CC[C@]3(C)C(CCC4[C@@]5(C)CC[C@H](O)C(C)(C)C5CC[C@]43C)C12 (stereo partly drawn) [Compound 4a, 3β-Hydroxy-lup-20(29)-ene-28-oic acid-3,5,6-trimethylpyrazin-2-methyl ester]
HepG2 cells [1]
  cell morphology after AO/EB double staining: increased number of orange- and red-stained cells in a dose dependent manner
[2]; 72 h
  IC50: 4.19 µM
[2]; Homo sapiens, Bel-7402, 72 h
  IC50: < 5.23 µM
HepG2 cells [3]
  cell morphology after DAPI staining: displayed morphological features of apoptosis
HepG2 cells [4]
  cell morphology after Giemsa staining: evident nuclear fragmentation, chromatin condensation in a dose dependent manner
HepG2 cells [5]; HepG2, 5 μM
  apoptosis ratio (early and late apoptosis): 75.7%
HepG2 cells [5]; HepG2, 6 μM
  apoptosis ratio (early and late apoptosis): 76.6%
HepG2 cells [5]; HepG2, 7 μM
  apoptosis ratio (early and late apoptosis): 83.7%

Reference: paper PMC4613240, “A Series of New Ligustrazine-Triterpenes Derivatives as Anti-Tumor Agents: Design, Synthesis, and Biological Evaluation” (International Journal of Molecular Sciences, 2015)
